The subject of data set [1] is IL-6 release in LPS-induced Balb/c female mice. The experiment in a line: Inhibition of IL-6 release in LPS-induced Balb/c female mice. Type of data set: in vivo, mouse. Also on record: concentration or dose not given beside the values. The note with it: administered 5 h before LPS induction, serum. The protocol:
Objective of the test: To determine the inhibitory effect of the compounds by measuring the plasma IL-6 concentration in a Balb/c mouse model with LPS-induced inflammation.
2.1 Prepared mouse serum samples (sample batch no. 20181218)
4.1 Reagent kit was equilibrated at room temperature (25-28° C.) for 20 min. After each detection, the remaining reagents were stored at 4° C.
4.3 Preparing reference standard: 1 vial of reference standard substance was added with labeled volume of reference standard diluent. The mixtures were incubated for 15 min at room temperature. Then the mixtures were gently mixed to completely dissolve the substance to prepare a reference standard stock at a final concentration of 1000 μg/mL.
4.4 Dilution of samples: The sample in each group was diluted by […], i.e., a 2-fold dilution with sample assay buffer followed by another two-fold dilution with standard diluent.
4.5 The diluted samples or standards of different concentrations were added into corresponding wells at 100 μL/well respectively, and a background correcting well (or a blank well) was set by adding only TMB buffer and terminating solution. The wells were sealed with a transparent film and incubated at room temperature for 120 min.
4.6 The plate was subjected to 5 washes, each with 300 μL of washing buffer for 15-30 sec. The plate was dried on thick absorbent paper after the last wash.
4.7 Biotinylated antibody was added at 100 μL/well (Note: the biotinylated antibody was prepared in advance and could be used directly without further dilution). The wells were sealed with a transparent film and incubated at room temperature for 60 min.
4.8 The plate was subjected to 5 washes, each with 300 μL of washing buffer for 15-30 sec. The plate was dried on thick absorbent paper after the last wash.
4.9 Horseradish peroxidase-labeled streptavidin was added at 100 μL/well. The wells were sealed with a white film and incubated away from light at room temperature for 20 min.
4.10 The plate was subjected to 5 washes, each with 300 μL of washing buffer for 15-30 sec. The plate was dried on thick absorbent paper after the last wash.
4.11 The chromogenic reagent TMB was added 100 μL/well. The wells were sealed with a white film and incubated away from light at room temperature for 20 min.
4.12 The terminating solution was added at 50 μL/well and A450 value was measured right after mixing.

Data set [2] concerns the target T1, hERG potassium ion channel (Homo sapiens, UniProt Q12809).
T1 construct: expressed in transfected cells; host or cells: HEK-293
The experiment in a line: hERG whole-cell patch clamp in HEK-293 cells. Format: cell-based. The note with it: HEK-293 cells stably expressing hERG, pH 7.4, inhibition for hERG at 30 μM concentration. On the procedure:
This study evaluated the cardiac safety of the compounds according to the present disclosure, and an HEK-293 cell line stably expressing hERG potassium ion channel was used for detection.
Procedures: Test compound stocks were diluted in DMSO into 0.3 mM, 1 mM, and 3 mM dilutions respectively. […] The working solutions of the test compounds were ultrasonically treated for 20 min.
Patch clamping: Under an inverted microscope, recording electrodes were controlled by micromanipulator to contact with the cell. A negative voltage was applied to create a G-omega shaped connection. After forming the G-omega shaped connection, a rapid capacitance compensation was given. Under the continuous negative voltage, the cell membrane was ruptured to form a whole-cell recording configuration. In the whole-cell recording configuration, slow capacitance compensation was given, and the values of membrane capacitance and series resistance were recorded.
Voltage stimulation scheme for cellular hERG potassium current: The cell membrane clamping voltage was −80 mV; the voltage was first elevated from −80 mV to +30 mV, held for 2.5 sec, and rapidly raised to and held at −50 mV for 4 sec, thus exciting the hERG channel tail current. Data acquisition was performed every 10 sec. −50 mV was used for drain current detection.
The cover glasses planted with cells were placed in the recording chamber of an inverted microscope. Negative control and test compounds flowed through the recording chamber in an ascending order of concentration by gravity perfusion to quickly act on the cells. During the recording, the extracellular buffer was continuously circulated by a vacuum pump. The current detected in a cell in the negative control was used as the background for the cell. Each concentration was allowed to act for 5 min or until the current was stabilized. All experiments were performed at room temperature.
The current of each concentration was normalized first
and then the inhibition rate was calculated
Basic statistics were calculated for each concentration, including mean, standard deviation (SD), standard error (SE), and replicates (n). The dose-dependent curve was fitted with the following equation and the half maximal inhibitory concentration (IC50) of the test compounds was calculated:
wherein C represents the test compound concentration, IC50 represents the half maximal inhibitory concentration, and h represents the Hill coefficient. Curve fitting and calculation of IC50 were done by GraphPad Prism 5.0 software.
(hERG is a cardiac potassium channel; its block is linked to QT prolongation.)

The next data set addresses T2, CYP2C9 (Homo sapiens, UniProt P11712).
T2 construct: tissue Corning (USA); host or cells: mixed human liver microsomes
The experiment in a line: CYP450 inhibition in human liver microsomes, CYP2C9. Type of data set: in vitro ADME. To be noted: human liver microsomes, probe diclofenac; read-out: IC50, subtype 2C9. On the procedure: (§1) This study was intended to investigate the inhibitory effect of the test compounds on five major CYP450 enzyme subtypes CYP1A2, 2C9, 2C19, 2D6 and 3A4 in human liver microsomes. The mixed human liver microsomes used in this assay were purchased from Corning (USA). The test compounds were co-incubated at 7 concentrations with human liver microsomes and five probe substrates (phenacetin for CYP1a2, diclofenac for CYP2C9, mephenytoin for CYP2C19, dextromethorphan for CYP2D6, midazolam for CYP3A4-M, mixed). The reaction was initiated by adding coenzyme NADPH, and terminated by adding acetonitrile containing internal standard. After the proteins were precipitated, the supernatant was centrifuged. The characteristic metabolites in the supernatant (acetaminophen for CYP1A2, 4-hydroxydiclofenac for CYP2C9, 4-hydroxymephenytoin for CYP2C19, dextrorphan for CYP2D6, 1-hydroxymidazolam for CYP3A4-M) were analyzed by LC-MS/MS. The influence of the test compounds on production of the characteristic metabolites was finally analyzed on the basis of the data obtained. A selective inhibitor (ketoconazole for CYP3A4-M) was used as positive control. All samples were tested in duplicate.
(Liver microsomes are a subcellular fraction often used to study metabolism.)

A further data set deals with T3, CYP2C19 (Homo sapiens, UniProt P33261).
T3 construct: tissue Corning (USA); host or cells: mixed human liver microsomes
The data set is described as follows: CYP450 inhibition in human liver microsomes, CYP2C19. Type of data set: in vitro ADME. The note with it: human liver microsomes, probe mephenytoin; read-out: IC50, subtype 2C19. The protocol:
as §1

A further data set has as its target T4, CYP2D6 (Homo sapiens, UniProt P10635).
T4 construct: tissue Corning (USA); host or cells: mixed human liver microsomes
The experiment in a line: CYP450 inhibition in human liver microsomes, CYP2D6. Format: in vitro ADME. To be noted: human liver microsomes, probe dextromethorphan; read-out: IC50, subtype 2D6. On the procedure:
as §1

Another data set has as its target T5, CYP3A4 (Homo sapiens, UniProt P08684).
T5 construct: tissue Corning (USA); host or cells: mixed human liver microsomes
The experiment in a line: CYP450 inhibition in human liver microsomes, CYP3A4. Format: in vitro ADME. To be noted: human liver microsomes, probe midazolam; read-out: IC50, subtype 3A4. The protocol: as §1

In data set [3] the test system is Salmonella typhimurium TA98 and TA100. The experiment in a line: Mini-Ames assay in Salmonella typhimurium. To be noted: TA98 and TA100, with or without S9 mixture.
Experimental: S9 homogenate: β-napthoflavone and phenobarbital induced rat liver microsome homogenate S9 fraction was used as the metabolic activation system for this assay. S9 was purchased from CHI Scientific, Inc. and stored in a freezer at −75° C. before use.
S9 mixture and mock mixture: S9 was quickly thawed to prepare a liquid mixture before the assay. 0.2 M PBS phosphate buffer (pH 7.4) was used as the mock mixture.
The overnight bacterial cultures were prepared from a stock of the strains. 80 μL of the stock was added to 20 mL of broth. For strains TA98 and TA100, 62.5 μL of ampicillin at a concentration of 0.8% were added per 10 mL of broth #2. The inoculated broth was then incubated on a thermostatic shaker overnight at 37° C. with a rotation speed of 160±10 rpm. The overnight cultures over the target absorbance were stored at 2-8° C. before use. The overnight cultures were used for genotyping and mutation tests.
The experimental system was exposed to the test compounds on plates in plate incorporation assay (Ames et al., 1975; N. Flamand et al., 2000).

The values below come from patent US20220204473A1, “COMPOUND AS IRAK INHIBITOR” (SHANGHAI MEIYUE BIOTECH DEVELOPMENT CO., LTD., priority 2018, published 2022).

The term inhibition denotes the change of the read-out against control, counted positive when it falls. One may read the IC50 as the concentration at which inhibition is half-maximal.

T5 sequence (P08684 whole entry): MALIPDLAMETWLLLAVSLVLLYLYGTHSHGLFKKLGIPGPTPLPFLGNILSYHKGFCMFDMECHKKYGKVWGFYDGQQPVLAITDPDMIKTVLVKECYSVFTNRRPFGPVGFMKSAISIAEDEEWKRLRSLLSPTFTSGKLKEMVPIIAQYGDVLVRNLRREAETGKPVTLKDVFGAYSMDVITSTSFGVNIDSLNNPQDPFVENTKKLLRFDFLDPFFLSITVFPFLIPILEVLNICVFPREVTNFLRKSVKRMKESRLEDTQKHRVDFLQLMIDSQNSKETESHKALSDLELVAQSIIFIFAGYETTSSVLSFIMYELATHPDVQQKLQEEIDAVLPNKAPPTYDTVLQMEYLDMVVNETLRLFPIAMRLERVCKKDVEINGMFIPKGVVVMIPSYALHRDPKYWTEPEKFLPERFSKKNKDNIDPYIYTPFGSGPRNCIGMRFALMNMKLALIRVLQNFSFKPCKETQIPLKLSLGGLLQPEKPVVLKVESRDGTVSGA
T3 sequence (P33261 whole entry): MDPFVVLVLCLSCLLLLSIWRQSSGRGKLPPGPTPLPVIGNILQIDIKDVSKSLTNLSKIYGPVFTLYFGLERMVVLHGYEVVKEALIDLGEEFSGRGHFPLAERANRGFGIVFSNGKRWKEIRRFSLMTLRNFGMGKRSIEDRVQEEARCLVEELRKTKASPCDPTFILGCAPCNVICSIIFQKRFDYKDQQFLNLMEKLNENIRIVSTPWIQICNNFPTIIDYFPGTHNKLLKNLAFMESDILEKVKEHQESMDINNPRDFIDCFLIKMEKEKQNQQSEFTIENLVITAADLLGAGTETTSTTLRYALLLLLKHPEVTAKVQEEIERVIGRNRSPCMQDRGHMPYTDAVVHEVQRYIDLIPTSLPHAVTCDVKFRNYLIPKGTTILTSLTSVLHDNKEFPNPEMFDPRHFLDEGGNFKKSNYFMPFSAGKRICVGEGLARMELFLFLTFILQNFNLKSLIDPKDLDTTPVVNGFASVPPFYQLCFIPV
T1 sequence (Q12809 whole entry): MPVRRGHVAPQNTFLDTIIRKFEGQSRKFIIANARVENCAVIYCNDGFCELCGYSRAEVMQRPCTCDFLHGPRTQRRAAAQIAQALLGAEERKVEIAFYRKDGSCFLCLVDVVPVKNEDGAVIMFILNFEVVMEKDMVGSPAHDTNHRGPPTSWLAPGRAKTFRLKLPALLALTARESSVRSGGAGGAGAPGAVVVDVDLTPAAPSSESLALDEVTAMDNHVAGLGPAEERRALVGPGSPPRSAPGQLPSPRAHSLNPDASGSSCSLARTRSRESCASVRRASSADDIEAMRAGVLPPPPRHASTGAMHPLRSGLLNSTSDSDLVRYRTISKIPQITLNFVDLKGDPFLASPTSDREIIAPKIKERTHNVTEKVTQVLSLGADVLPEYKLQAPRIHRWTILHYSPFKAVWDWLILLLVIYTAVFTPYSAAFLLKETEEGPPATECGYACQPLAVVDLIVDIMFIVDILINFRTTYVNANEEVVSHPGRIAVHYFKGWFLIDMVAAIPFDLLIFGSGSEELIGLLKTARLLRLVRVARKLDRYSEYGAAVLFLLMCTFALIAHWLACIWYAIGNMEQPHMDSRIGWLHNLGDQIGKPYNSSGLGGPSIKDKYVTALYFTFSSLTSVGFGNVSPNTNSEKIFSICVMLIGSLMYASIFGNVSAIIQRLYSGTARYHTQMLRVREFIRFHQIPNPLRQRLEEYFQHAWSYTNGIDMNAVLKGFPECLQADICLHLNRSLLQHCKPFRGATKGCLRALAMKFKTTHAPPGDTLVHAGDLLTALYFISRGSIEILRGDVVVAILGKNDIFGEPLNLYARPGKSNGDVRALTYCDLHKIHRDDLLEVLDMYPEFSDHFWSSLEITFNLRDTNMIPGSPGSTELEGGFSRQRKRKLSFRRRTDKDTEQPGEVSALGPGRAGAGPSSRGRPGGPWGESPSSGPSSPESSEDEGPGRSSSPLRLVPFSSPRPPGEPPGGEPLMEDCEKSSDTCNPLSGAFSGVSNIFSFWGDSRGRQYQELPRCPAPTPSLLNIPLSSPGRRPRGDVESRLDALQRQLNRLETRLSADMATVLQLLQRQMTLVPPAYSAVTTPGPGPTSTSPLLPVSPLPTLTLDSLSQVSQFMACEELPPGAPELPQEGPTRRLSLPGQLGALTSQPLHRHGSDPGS
T4 sequence (P10635 whole entry): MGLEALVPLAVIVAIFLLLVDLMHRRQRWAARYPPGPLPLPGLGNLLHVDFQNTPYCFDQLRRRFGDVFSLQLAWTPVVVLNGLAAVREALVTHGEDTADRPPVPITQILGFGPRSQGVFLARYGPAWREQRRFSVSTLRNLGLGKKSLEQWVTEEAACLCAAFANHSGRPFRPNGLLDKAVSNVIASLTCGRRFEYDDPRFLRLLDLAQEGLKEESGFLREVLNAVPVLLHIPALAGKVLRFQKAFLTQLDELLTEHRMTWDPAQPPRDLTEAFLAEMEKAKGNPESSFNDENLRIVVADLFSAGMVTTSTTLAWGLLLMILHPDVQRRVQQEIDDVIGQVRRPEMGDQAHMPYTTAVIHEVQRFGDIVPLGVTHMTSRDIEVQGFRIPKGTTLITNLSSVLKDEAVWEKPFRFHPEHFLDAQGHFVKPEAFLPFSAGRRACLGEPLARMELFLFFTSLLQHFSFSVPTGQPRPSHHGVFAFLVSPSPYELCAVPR
T2 sequence (P11712 whole entry): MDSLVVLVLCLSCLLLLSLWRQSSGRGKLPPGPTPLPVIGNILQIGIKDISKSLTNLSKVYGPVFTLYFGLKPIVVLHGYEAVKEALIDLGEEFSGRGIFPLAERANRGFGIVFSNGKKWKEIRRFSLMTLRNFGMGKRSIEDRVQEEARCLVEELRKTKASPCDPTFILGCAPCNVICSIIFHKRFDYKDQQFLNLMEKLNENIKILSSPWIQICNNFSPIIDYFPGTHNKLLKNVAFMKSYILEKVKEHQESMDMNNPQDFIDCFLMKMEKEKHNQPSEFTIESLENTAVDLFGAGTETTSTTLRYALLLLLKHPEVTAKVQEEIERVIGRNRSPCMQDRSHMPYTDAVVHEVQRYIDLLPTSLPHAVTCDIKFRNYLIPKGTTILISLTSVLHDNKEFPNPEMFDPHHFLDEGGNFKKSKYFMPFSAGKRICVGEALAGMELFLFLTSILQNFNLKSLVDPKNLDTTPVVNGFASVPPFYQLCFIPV

For the compound `CN(C)c1cc2nn([C@H]3C[C@H](C(C)(C)O)C3)cc2cc1NC(=O)c1cccc(C(F)(F)F)n1` [MY-004-089], the “Inhibition rate of IL-6” value in data set [1] is on record as 94.33%.
As to `COc1cc2nn([C@H]3CC[C@](C)(O)CC3)cc2cc1NC(=O)c1cccc(C(F)(F)F)n1` [MY-004-126-1], the “Inhibition rate of IL-6” value in data set [1] came to 97.05%. This compound also showed an inhibition at 5 min, 30 µM in data set [2] of 12.8%. Moreover, the IC50 on CYP2C9, on CYP2C19, on CYP2D6 and at CYP3A4 was above 30 µM throughout.
Turning to `COc1cc2nn([C@H]3CC[C@@](C)(O)CC3)cc2cc1NC(=O)c1cccc(C(F)(F)F)n1` [MY-004-126-2], the “Inhibition rate of IL-6” value in data set [1] turned out to be 93.39%. Moreover, the inhibition at 5 min, 30 µM in data set [2] is 10.1%. Also, in data set [3], the Mini-Ames result is “negative”.
In the case of `COc1cc2nn([C@H]3CC[C@H](O)CC3)cc2cc1NC(=O)c1cccc(C(F)(F)F)n1` [MY-004-127-1], the “Inhibition rate of IL-6” value in data set [1] is listed as 83.28%. Moreover, in data set [2], the inhibition at 5 min, 30 µM came out at 11.6%. In addition, the half-maximal inhibitory concentration (IC50) at CYP2C9, at CYP2C19, at CYP2D6 and at CYP3A4 was above 30 µM each time. Besides, the Mini-Ames result in data set [3] is given as “negative”.
For `CN(C)c1cc2nn([C@H]3CC[C@H](O)CC3)cc2cc1NC(=O)c1cccc(C(F)(F)F)n1` [MY-004-153], the inhibition at 5 min, 30 µM in data set [2] came out at 17.7%.
For the compound `CC(C)(O)c1cc2nn([C@H]3CC[C@](C)(O)CC3)cc2cc1NC(=O)c1cccc(C(C)(F)F)n1` [MY-004-165], the IC50 on CYP2C9 was 20.9 µM; on CYP2C19, above 30 µM; at CYP2D6, above 30 µM; at CYP3A4, above 30 µM.
